{"source": "patent US11523610B2", "about": "“Regulating plant growth using a diapocarotenoid” (King Abdullah University of Science and Technology, priority 2018, dated 2022)", "type_in_all_cases": "in vivo", "key": {"[1]": {"tested_on": "Arabidopsis root growth (Col-0 seedlings)", "experiment": "Primary root length of Arabidopsis seedlings on treated half MS agar plates", "description": "β-cyclocitral, β-ionone and D′orenone (β-Apo-13-caroteneone) (FIG. 1A) were purchased from Buchem (Netherlands). Diapo1, Diapo2, Diapo3, Diapo4, Diapo5, and Diapo6 (FIG. 1B) were synthesized by Buchem (Netherlands). Diapo3 was also synthesized together with D6-anchorene and anchorene derivatives according to the protocol of SCHEME 2. Apocarotenoids and diapocarotenoids were dissolved in acetone to make stock solutions (10 mM). For the screening experiments, each chemical was diluted in half strength Murashige and Skoog (MS) media (with 0.5% sucrose+1% agar, 0.5 g/L MES, pH 5.7) to reach indicated concentrations of 25 μM and 5 μM. A stock solution of 10 mM GR24 (Chiralix, Netherlands) was also made by diluting GR24 in acetone. Stock solutions of D15 (100 mM), Norflurazone (5 mM), and CPTA (50 mM) were made in dimethyl sulfoxide (DMSO). For experiments, these compounds were diluted in concentrations of 125 μM D15, 500 nM Norflurazone, or 100 μM CPTA, respectively. 1-Naphthaleneacetic acid (NAA) and N-1-Naphthylphthalamic Acid (NPA) were purchased from Sigma-Aldrich (Germany) and dissolved in water to make 1 mM stock solutions. For NAA and NPA treatments, media containing 0.1 μM NAA and 1 μM NPA were used. Unless otherwise noted, all commercially available compounds were used as provided without further purification.\nSterilized Col-0 and mutants seeds were kept at 4° C. in darkness for 3 days to stimulate seed germination, and then sown on half strength MSO plates (with 0.5% sucrose +1% agar, 0.5g/L MES, pH 5.7) supplemented with the indicated chemicals as described below or in the Figures. Plates were vertically grown in PERCIVAL® growth chambers under long day (16 h light/8 h dark, 22° C., 60% relative humidity, light density: 4000 LUX) LED white light [HYPERIKON® 16 W LED Light Bulb A21, 16 W (100 W Equivalent), CRI92, 1620 Lumens, 4000K (Daylight Glow)] conditions. Light fluorescence rates were measured using a digital LUX meter ([…]® 5025).\n(§1) ANRs were counted in seedlings vertically grown on half strength MS (with 0.5% sucrose +1% agar, 0.5 g/L MES, pH 5.7) media 8 days post-stratification (dps) using a dissection microscope. To investigate ANR formation after root apical meristems (RAM) excision (ANR-RE), RAM of seedlings were excised using sterile scalpels at 5 dps and then grown for another 3 days prior to counting the number of emerged ANRs. RAM of seedlings were excised at 8 dps and then grown for another 3 days prior to counting the number of emerged LRs. For determining the effect of anchorene on lateral roots, the number of emerged lateral roots were counted using a dissection microscope at 8 dps. For primary root length measurements, seedlings were measured using the publicly available ImageJ software (downloaded from rsbweb.nih.gov/ij/) after taking digital photographs. For adventitious root assay, the number of emerged adventitious roots per plant were counted after 5 days of treatment on plates with or without anchorene.\nSix previously identified or predicted diapocarotenoids with chain lengths ranging from C9 to C15 (Diapo1-6) (FIG. 1B) and 3 apocarotenoids (FIG. 1C) were selected to identify new carotenoid-derived signals involved in root development). These compounds were selected because they are available and stable at ambient conditions. Diapo1 (C9) is the expected product formed upon cleavage of all-trans-β-apo-10′ carotenal. Diapo2 (C10) results from cleaving the C7, C8 and C15, C15′ double bonds in different carotenoids and is produced by cyanobacterial retinal-forming enzymes from Cm-apocarotenoids. Diapo3 (C10) is a structural isomer of Diapo2 and a predicted cleavage product that can be formed by cutting the C11, C12 and C11′, C12′ bonds in almost all plant carotenoids (FIGS. 1A, 1B and 17). Diapo4 (C12) results from cleaving the C7, C8 and C13′, C14′ bonds in many carotenoids, and is formed by the CCD1 from apo-10′-lycopenal."}, "[2]": {"tested_on": "Arabidopsis collet transcriptome", "experiment": "RNA-Seq of collet transcriptome", "settings": "collets", "description": "For anchorene and NPA treatment, Col-0 seedlings were vertically grown on half MSO (with 0.5% sucrose+1% agar, 0.5 g/L MES, pH 5.7) plates supplemented with 20 μM anchorene or 1 μM NPA for 5 days. RAM excision treatment was applied by excising the RAM from 4.5-day old Col-0 seedlings, and then tissue was collected 12 hours after excision (5 DAG). About 2 mm of tissue at the collet site (see FIG. 11I) was collected at 5 DAG for all chemicals and physical treatment. Tissue from approximately 50 seedlings were used for each sample. Total RNA was extracted by Direct-zolTM RNA MiniPrep Plus (200 Preps) w/Zymo-Spin™ (ZYMO research). 100 ng total RNA were used for RNA Hi-seq 4000 (ILLUMINA). Each treatment includes three independent replicates.\nPrior to the analysis of RNA-Seq data, the adaptor sequences and low-quality ends of sequenced reads were trimmed using Trimmomatic v0.32 and quality-checked using FastQC v0.11 (www.bioinformatics.babraham.ac.uk/projects/fastqc). To quantify the expression level of genes, the remaining reads were pseudo-aligned to the publicly available TAIR10 A. thaliana transcriptome (release 34) using kallisto v0.43.0. The estimated read counts and calculated transcripts per million (TPM) were subsequently passed to sleuth v0.28.1 for differential expression analysis. […] Gene ontology and KEGG pathway enrichment analyses were conducted using clusterProfiler and Pathview. RNA-Seq data can be accessed at NCBI via BioProject ID PRJNA489360."}, "[3]": {"tested_on": "dark grown Arabidopsis seedlings", "experiment": "Adventitious root assay", "settings": "5, 10, or 20 μM anchorene, 5 days", "text": "as §1\n4-day-old dark grown Arabidopsis seedlings were transferred to plates with 5, 10, or 20 μM anchorene, or without. After 5 additional days of growth, the number of adventitious roots was determined for each seedling."}, "[4]": {"tested_on": "Arabidopsis seedlings (anchor roots after RAM excision)", "experiment": "ANR formation after root apical meristem excision (ANR-RE)", "text": "as §1\nANR formation under carotenoid-deficient conditions was monitored to determine the role of endogenous carotenoids in ANR development. […] Therefore, ANR formation was monitored after RAM excision (ANR-RE) to stimulate ANR development. ANR measurements were used as an indicator of ANR formation capacity under different conditions. […] Norflurazon (NF) and 2-(4-chlorophenylthio)-triethylamine hydrochloride (CPTA), which block phytoene desaturation and lycopene cyclization, respectively were tested (FIG. 6A). The effect of D15, an inhibitor of CCDs was also investigated. Application of D15 to Arabidopsis seedlings is known to lead to an increase in carotenoid levels."}}, "note": "Entries after “also recorded” stand apart in the source; their conditions may differ."}
{"molecule": "C\\C(C=O)=C/C=C/C=C(\\C)C=O", "note": "[anchorene, 12,12′-diapocarotene-12,12′-dial]", "values": [{"measurement": "inhibition of primary root growth", "setting": "[1]; 25 μM, 7 dps", "result": "weak inhibition"}, {"measurement": "inhibition of primary root length", "setting": "[1]; 8 DAG Col-0 seedlings, different concentrations of anchorene (FIG. 3F)", "result": "minor inhibition; also recorded: weak inhibitory effect"}, {"measurement": "genes with opposite effects of RAM excision and anchorene treatment", "setting": "[2]; 20 μM anchorene", "result": 36, "unit": "genes"}, {"measurement": "genes with similar response to RAM excision and anchorene treatment", "setting": "[2]; 20 μM anchorene", "result": 1459, "unit": "genes"}, {"measurement": "overlapping genes on which NPA and anchorene exert the opposite effect", "setting": "[2]; 20 μM anchorene, 1 μM NPA", "result": "2791 (83%) genes"}, {"measurement": "overlapping genes whose expression level is affected by NPA and anchorene", "setting": "[2]; 20 μM anchorene, 1 μM NPA, 5 days", "result": 3355, "unit": "genes"}, {"measurement": "effect on auxin biosynthesis genes", "setting": "[2]; anchorene application", "result": "induction of many auxin biosynthesis genes"}, {"measurement": "number of adventitious roots", "setting": "[3]", "result": "significantly increases"}, {"measurement": "rescue of ANR-RE in carotenoid biosynthesis inhibitor treated seedlings", "setting": "[4]; 20 μM anchorene simultaneous with 1 μM NF or 100 μM CPTA", "result": "blocked inhibition of ANR-RE"}, {"measurement": "rescue of ANR-RE in NPA treated seedlings", "setting": "[4]; 20 μM anchorene with 1 μM NPA", "result": "partially compensated"}, {"measurement": "ANR formation in arf7arf19 double mutant", "setting": "[4]; arf7arf19, 20 μM anchorene or after RAM excision", "result": "did not form any ANR"}, {"measurement": "rescue of ANR-RE in psy mutant", "setting": "[4]; psy mutant, 20 μM anchorene", "result": "restored wild-type ANR-RE"}]}
